{"source": "patent US20250235578A1", "about": "“WOUND DRESSING COMPOSITIONS AND METHODS OF USE AND PREPARATION THEROF” (T.J.Smith and Nephew,Limited, priority 2021, published 2025)", "origin": "cited, not measured here", "conditions": "under normal conditions", "data": [{"smiles": "[N]=O", "note": "[NO, nitric oxide]", "values": [{"measurement": "maximum solubility in water", "value": "approximately 1.7 mM"}]}]}
